Two compounds from patent US8404703B2, “Medicinal compositions containing aspirin” (Daiichi Sankyo Company, Limited, priority 2000, dated 2013) can be followed below.

This test relates to thrombogenesis or thrombus formation. Nature of the test: Inhibitory activity against thrombogenesis, modified arterio-venous shunt thrombosis model in rats. Format: in vivo, male Sprague Dawley rats. As to conditions: oral, shunt circulation started 2 h after administration, 30 min circulation, average ±SE (n=6). The text has this:
As the test animals, male Sprague Dawley rats of 7 weeks old were purchased from SLC Japan and 6 rats per group were used.
2-Acetoxy-5-(α-cyclopropylcarbonyl-2-fluorobenzyl)-4,5,6,7-tetrahydrothieno[3,2-c]pyridine was synthesized according to the method described in the Specification of Japanese Patent Application Publication No. Hei 6-41139 and was used, while aspirin was purchased from Sigma Chemical Co. and was used. Both compounds were suspended in 5% (w/v) gum arabic solution, and were diluted so as to be 1 ml/kg of administration volume and were orally administered.
The inhibitory activities of the compounds against thrombogenesis or thrombus formation were evaluated in the modified arterio-venous shunt thrombosis model in rats, which was described by Umetsu et al. [Thromb. Haemost., 39, 74-83 (1978)].
The shunt tube was prepared as follows; i.e., both sides of a medical silicon tube of 12 cm length [inner diameter: 1.5 mm, outer diameter: 2.5 mm, purchased from KANEKA Medix Co., Ltd] were connected each to a polyethylene tube of 7 cm length [inner diameter: 0.5 mm, outer diameter: 1.0 mm, purchased from Natsume Seisakusho Co., Ltd.] covered with silicon via a medical silicon tube of 0.7 cm length [inner diameter: 1.0 mm, outer diameter: 1.5 mm, KANEKA Medix Co., Ltd] as connector. A surgical suture of 10 cm length was placed in the silicon tube of 12 cm length.
The animal was anesthetized with an intraperitoneal injection of 40 mg/kg of pentobarbital sodium (purchased from Abbott Laboratories Inc.), and the jugular of one side and the carotid of the other side were exposed. The arteriovenous shunt was made by cannulation of a shunt tube filled with heparin solution [[…], purchased from Fuso Pharmaceutical Co., Ltd] into the carotid and the jugular which had been previously exposed.
The test compounds were orally administered and the blood was started to circulate into the shunt area two hours after the administration. Thirty minutes after the circulation was started, the shunt tube was removed, and the thrombus adsorbed on the surgical suture was weighed. The results in the table are expressed as the average weight ±SE (n=6).

For the compound `CC(=O)Oc1ccccc1C(=O)O` [Aspirin, aspirin], under “Aspirin 10 mg/kg alone”, the “Inhibition Rate” value came to 12.3 ± 4.4% and the “Thrombus Weight” value was 46.6 ± 2.8 mg.
Take `CC(=O)Oc1cc2c(s1)CCN(C(C(=O)C1CC1)c1ccccc1F)C2` (stereo not drawn) [Compound A, 2-Acetoxy-5-(α-cyclopropylcarbonyl-2-fluorobenzyl)-4,5,6,7-tetrahydrothieno[3,2-c]pyridine]: the “Inhibition Rate” value is, setting by setting: (Compound A 0.3 mg/kg alone) 17.0 ± 4.1%; (Compound A 0.6 mg/kg alone) 28.3 ± 4.0%. Besides, the “Thrombus Weight” value was found to be 43.5 ± 2.1 mg (Compound A 0.3 mg/kg alone) and 37.5 ± 2.1 mg (Compound A 0.6 mg/kg alone).
